Structures can show the parent of a compound that is named as a salt.
How the values were obtained:
VEGF mRNA = VEGF mRNA expression, real-time RT-PCR; assay type: cell-based, human; settings: SKOV3ip1; forskolin 1 μM, db-cAMP 1 mM
Method: Total RNA was extracted (Trizol reagent; Invitrogen Co, Carlsbad, Calif.) and reverse transcribed using an oligo(dT) primer and M-MLV reverse transcriptase (Life Technologies, Inc., Rockville, Md.) in a final reaction volume of 20 μl (60 min at 42° C.). PCR amplifications are performed using the ABI Prism 7700 Sequence Detection System with TaqMan One-Step RT-PCR Master Mix Reagent kit (PE Applied Biosystems, Foster City, Calif.). Quantitative values are obtained from the Ct value, at which the increase in fluorescent signal associated with exponential growth of PCR products starts to be detected by the laser detector of the Sequence Detection System, using the analysis software according to the manufacturer's instructions (each sample is normalized on the basis of its I8S content). The VEGF primers were obtained from Applied Biosystems (Item number HS00173626-ml). βAR expression was examined with semi-quantitative RT-PCR using the following primers: βAR (forward, 5′-[…]-3′ (SEQ ID NO:13), reverse, 5′-[…]-3′) (SEQ ID NO:14); β2AR (forward, 5′-[…]-3′ (SEQ ID NO:15), reverse, 5′-[…]-3′) (SEQ ID NO:16).

HeyA8 tumor samples = assay: Mean vessel density (CD31) in HeyA8 tumor samples; assay type: in vivo, nude mice; settings: for MVD counts: daily agonist treatment
Method: Paraffin sections were stained for CD31 (1:800 dilution, Pharmingen, San Jose, Calif.), MMP-2 (1:500 dilution, Chemicon, Temecula, Calif.), MMP-9 (1:200 dilution, Calbiochem, San Diego, Calif.), VEGF (1:500 dilution, Santa Cruz Biotechnology, Santa Cruz, Calif.) and bFGF (1:1,000 dilution, Sigma, St. Louis, Mo.) at 4° C. Samples were stained with a biotinylated goat anti-rabbit antibody for 30 min (prediluted), followed by strepavidin horseradish peroxidase for 30 min (1:300 dilution), and visualized in 3,3′-diaminobenzidine (DAB) for 5-10 min.
To quantify MVD, 10 random 0.159 mm^2 fields at 100× magnification were examined for each tumor, and the microvessels within those fields were counted. A single microvessel was defined as a discrete cluster of cells stained CD31(+), and the presence of a lumen was required for scoring as a microvessel.

HeyA8 cells [1] = assay: Chronic restraint stress, HeyA8 orthotopic tumor growth; assay type: in vivo, nude mice; settings: propranolol Alzet pump 2 mg/kg/day
From the text: Mice habituated to vivarium conditions for 1 week before the initiation of stress procedures. A restraint-stress procedure was used based on previous studies (Sheridan et al., 1991), substituting a novel Mouse Restraint System (FIG. 15A) for conical centrifuge tubes. In this system, up to 10 mice are placed in individual slots, and each slot can be adjusted to restrain the animal for a desired length of time. In the present study, restraint stress began between 8 a.m. and 10 a.m., and lasted for 2-6 hours for up to 21 days. […] Immunohistochemistry and H&E staining procedures were carried out on formalin-fixed paraffin-embedded tumors. […] Pumps were inserted on the nape of the neck 7 days prior to initiation of restraint stress for 2 hours daily. Mice were anesthetized with inhaled methoxyflurane (Medical Developments Australia Pty. Ltd, Melbourne, Australia), and implanted with Alzet pumps containing PBS or S-propranolol hydrochloride (Sigma Co., St. Louis, Mo.) diluted in PBS at a dose of 2 mg/kg/day, which allows for chronic continuous receptor blockade, for 28 days (Aarons and Molinoff, 1982; Exton et al., 2002).

HeyA8 cells [2] = assay: Daily β-agonist treatment of mice bearing HeyA8 ovarian cancer cells; assay type: in vivo, nude mice; settings: terbutaline 5 mg/kg, xamoterol 1 mg/kg, isoproterenol plus propranolol 2 mg/kg, daily
From the text: Mice habituated to vivarium conditions for 1 week before the initiation of stress procedures. A restraint-stress procedure was used based on previous studies (Sheridan et al., 1991), substituting a novel Mouse Restraint System (FIG. 15A) for conical centrifuge tubes. In this system, up to 10 mice are placed in individual slots, and each slot can be adjusted to restrain the animal for a desired length of time. In the present study, restraint stress began between 8 a.m. and 10 a.m., and lasted for 2-6 hours for up to 21 days. The ovarian cancer cell lines were harvested from subconfluent cultures by a brief exposure to 0.25% trypsin and 0.02% EDTA, resuspended in Hank's balanced salt solution (HBSS), and tested for >95% viability by trypan blue dye exclusion. The HeyA8 cells were injected i.p. into mice at a concentration of 2.5×10^5 cells while the other cell lines were injected at 1.0×10^6 cells per 0.2 ml HBSS, ten days after starting stress in all groups. Animals were necropsied 21 days after tumor injection, and tumors in the peritoneal cavity were excised, weighed, and documented for location. Immunohistochemistry and H&E staining procedures were carried out on formalin-fixed paraffin-embedded tumors.
Starting 4 days after tumor cell injection, mice bearing HeyA8 ovarian cancer cells (n=10 per group) were treated daily with either 1) PBS; 2) isoproterenol (non-specific β-agonist) 10 mg/kg; 3) terbutaline (β2-agonist) 5 mg/kg; 4) xamoterol (β1-agonist) 1 mg/kg; or 5) isoproterenol plus 2 mg/kg of the non-specific β-antagonist propranolol.

FAK = FAK cleavage in response to docetaxel, Western blot; assay type: cell-based, human; settings: in the presence of DEVD-fmk
Method: Cells were lysed in modified RIPA buffer (50 mM Tris, 150 mM NaCl, 1% triton, 0.5% deoxycholate plus 25 µg/ml leupeptin, 10 µg/ml aprotinin, 2 mM EDTA, and 1 mM sodium orthovanadate (Sigma Chemical Co, St. Louis, Mo.) as previously described (Sood et al., 2004; Sood et al., 2002). A sample was removed from culture dishes by cell scraping and centrifuged at 12,500 rpm for 30 min. The […] protein concentration of the supernatant was determined using a bicinchoninic acid protein assay reagent kit (Pierce, Rockford, Ill.), and whole cell lysates were analyzed by 7.5% SDS-PAGE. Samples were then transferred to nitrocellulose membrane by semi-dry transfer (BioRad Laboratories, Hercules, Calif.). Membranes were blocked with 5% nonfat milk, and incubated with 0.25 μg/mL anti-FAK antibody (Biosource, International Camarillo, Calif.) for 1 h at room temperature. Antibody was detected with 0.167 μg/mL HRP-conjugated anti-mouse secondary antibody (The Jackson Laboratory, Bar Harbor, Me.) and developed with an enhanced chemiluminescence detection kit (Pierce). Equal loading was confirmed by detection of β-actin (0.1 μg/ml, anti-β-actin antibody, Sigma Chemical). Densitometric analysis was performed using the Scion Imaging software (Scion Corporation, Frederick, Md.).
It has been reported that FAK may be cleaved by caspase-3 (Gervais et al., 1998; Sasaki et al., 2002; Carragher et al., 2001). Based on observations regarding modulation of caspase levels by docetaxel in ovarian cancer cells, FAK cleavage after treatment with docetaxel was examined and whether there are differences in extent of FAK cleavage between the taxane-sensitive and taxane-resistant cell lines. In SKOV3 cells, FAK was cleaved after 48 and 72 hours of exposure to docetaxel (FIG. 7A). The 71-kDa fragments increased after treatment with docetaxel, whereas the 125-kDa fragments decreased. […] To study the dependence of FAK cleavage on caspase-3, the effect of DEVDfmk (caspase-3 inhibitor) was examined.

HeyA8 cells [3] = assay: TUNEL apoptosis assay, HeyA8; assay type: cell-based, human; settings: HeyA8, docetaxel 72 hours without or with DEVD-fmk
Method: (§1) Terminal deoxynucleotidyl transferase-mediated nick end labeling-positive cells were detected using Dead End Fluorometric terminal deoxynucleotidyl transferase-mediated nick end labeling system (APO-DIRECT, BD Biosciences/PharMingen, San Diego, Calif.) according to the manufacturer's instructions. […] Cells were fixed with 4% paraformaldehyde solution for 25 minutes on ice. Intracellular DNA fragments were then labeled by exposing cells to fluorescein-12-dUTP, treated with propidium iodide and RNaseA solution, and analyzed by flow cytometry (EPICS XL, Beckman Coulter, Miami, Fla.). The percentages of apoptotic cells were averaged over three consecutive experiments.

SKOV3 cells = assay: TUNEL apoptosis assay, SKOV3; assay type: cell-based, human; settings: SKOV3, docetaxel 72 hours without or with DEVD-fmk
Method: as §1

CC(C)NC[C@H](O)COc1cccc2ccccc12 (racemic) [propranolol, S-propranolol hydrochloride]
effect on VEGF mRNA (VEGF mRNA): blocked
MVD counts (HeyA8 tumor samples): blocked that increase as well
stress-induced increases in MVD counts (HeyA8 tumor samples; stressed animals): efficiently blocked stress-induced increases in MVD counts
invasive disease among stressed animals (HeyA8 cells [1]): 0%
effect of stress on tumor weight and number of nodules (HeyA8 cells [1]; daily 2 hour stress): stress did not significantly increase tumor weight or the number of tumor nodules
tumor burden (HeyA8 cells [2]): blocked the isoproterenol-induced increase in tumor growth

CC(C)(C)NCC(O)c1cc(O)cc(O)c1 (stereo not drawn) [terbutaline]
MVD counts (HeyA8 tumor samples): significantly higher MVD counts compared to controls

CCCC(=O)Nc1ncnc2c1ncn2[C@@H]1O[C@@H]2COP(=O)(O)O[C@H]2[C@H]1OC(=O)CCC [dibutyryl cAMP]
effect on VEGF mRNA (VEGF mRNA): also increased VEGF mRNA levels

CCCCCCOC(=O)[C@]1(O)C[C@@H]2O[C@@]1(C)n1c3ccccc3c3c4c(c5c6ccccc6n2c5c31)C(=O)NC4 [KT5720]
effect on VEGF mRNA (VEGF mRNA): efficiently blocked the effects of norepinephrine and forskolin on VEGF mRNA expression

COC(=O)CC[C@H](NC(=O)[C@H](CC(=O)OC)NC(=O)OCc1ccccc1)C(=O)N[C@H](C(=O)N[C@@H](CC(=O)OC)C(=O)CF)C(C)C [DEVD-fmk]
docetaxel-induced FAK cleavage (FAK): docetaxel-induced FAK cleavage was blocked
proportion of apoptotic cells (HeyA8 cells [3]): 6%
proportion of apoptotic cells (SKOV3 cells): 7%
